Measurements as given in patent US20260078103A1, “ISOQUINOLONES AS PI3K INHIBITORS” (OnKure, Inc., priority 2022, published 2026).
Read-outs that look alike come from different tables or passages of the source.

Assays:
Format in all cases: cell-based
[1] = tested on: SKBR3 cells express WT PI3Ka; test: In vitro cell proliferation, SKBR3 cells (CellTiter-Glo); settings: inhibition of proliferation
How it was run: (§1)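 T47D (PI3Kα H1047R; RPMI, 10% FBS, insulin 0.2 units/mL) or SKBR3 (WT PI3Kα; McCoys 5a, 10% FBS) cells seeded at 1,500 cells/well on 10-point compound dilutions, grown 72 h at 37 °C. CellTiter-Glo luminescence; inhibition normalised to 0.1% DMSO and 10 uM alpelisib, EC50 from four-parameter fit.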

[2] = tested on: phosphorylation of AKT (pAKT) in T47D cells expressing mutant PI3Ka (H1047R); test: In vitro cell pAKT (Ser473) HTRF, T47D cells; settings: cellular pAKT, T47D cells, mutant PI3Ka (H1047R), 6 hours, read-out: Avg T-47D IC50
How it was run: (§2)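 T47D cells (RPMI, 10% FBS, 0.2 units/mL insulin) or SKBR3 cells (McCoy's 5a, 10% FBS) were seeded onto 10-point compound dilutions and incubated 6 h at 37 °C. After lysis, pAKT was detected overnight by HTRF (Eu cryptate/d2). IC50 was fitted from % inhibition relative to 0.1% DMSO and 10 uM alpelisib controls.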

[3] = tested on: phosphorylation of AKT (pAKT) in SKBR3 cells express WT PI3Ka; test: In vitro cell pAKT (Ser473) HTRF, SKBR3 cells; settings: cellular pAKT
How it was run: as §2

[4] = tested on: T47D cells expressing mutant PI3Ka (H1047R); test: In vitro cell proliferation, T47D cells (CellTiter-Glo); settings: inhibition of proliferation, read-out: Avg T-47D EC50
How it was run: as §1

EC50 ([1]; 72 hours)	IC50 [2]	IC50 ([3]; 6 hours)	EC50 ([4]; 72 hours)	IC50 ([3]; Homo sapiens, SK-BR-3, 6 h)	EC50 ([1]; Homo sapiens, SK-BR-3, 72 h)	IC50 ([2]; Homo sapiens, T47D, 6 h)	EC50 ([4]; Homo sapiens, T47D, 72 h)	SMILES
> 15000 nM	1 to 500 nM	> 15000 nM	500 to 2000 nM	–	–	–	–	C[C@@H](Nc1cccc(F)c1C(=O)O)c1cc(F)cc2c(=O)n(C)c(-c3ccc(OCC(F)(F)F)nc3)cc12 [Example 441]
2000 to 15000 nM	> 15000 nM	–	2000 to 15000 nM	> 15000 nM	–	–	–	Cc1cc(C(C)Nc2ccccc2C(=O)O)c2cc(N3CCC(c4ccccc4)C3)n(C)c(=O)c2c1 (single isomer, unassigned) [Example 104]
–	–	–	–	2000 to 15000 nM	> 15000 nM	1 to 500 nM	1 to 500 nM	COc1cccc(N2CCN(c3cc4c([C@@H](C)Nc5ccccc5C(=O)O)cc(C)cc4c(=O)n3C)CC2)c1 [Example 147]
–	–	–	–	2000 to 15000 nM	2000 to 15000 nM	1 to 500 nM	1 to 500 nM	Cc1cc([C@@H](C)Nc2ccc(Cl)nc2C(=O)O)c2cc(-c3ccc(C)nc3)n(C)c(=O)c2c1 [Example 130]
> 15000 nM	1 to 500 nM	> 15000 nM	1 to 500 nM	–	–	–	–	Cc1cc(C(C)Nc2ccccc2C(=O)O)c2cc(C#Cc3ccccc3)n(C)c(=O)c2c1 (single isomer, unassigned) [Example 36, 2-((1-(2,7-dimethyl-1-oxo-3-(phenylethynyl)-1,2-dihydroisoquinolin-5-yl)ethyl)amino)benzoic acid]
–	–	–	–	> 15000 nM	2000 to 15000 nM	1 to 500 nM	1 to 500 nM	Cc1nc(C(F)(F)F)c(F)cc1-c1ncc(-c2cc3c([C@@H](C)Nc4ccccc4C(=O)O)cc(F)cc3c(=O)n2C)cc1F [Example 576]
> 15000 nM	1 to 500 nM	> 15000 nM	1 to 500 nM	–	–	–	–	Cc1cc([C@@H](C)Nc2ccccc2C(=O)O)c2cc(N3CCN(C)C(C(F)(F)F)C3)n(C)c(=O)c2c1 (single isomer, unassigned) [Example 302]
> 15000 nM	1 to 500 nM	> 15000 nM	500 to 2000 nM	–	–	–	–	Cc1cc([C@@H](C)Nc2ccccc2C(=O)O)c2cc(N3CCn4c(cnc4C(F)(F)F)C3)n(C)c(=O)c2c1 [Example 433]
> 15000 nM	2000 to 15000 nM	> 15000 nM	500 to 2000 nM	–	–	–	–	Cc1cc(C(C)Nc2ccccc2C(=O)O)c2cc(N3CCN4C(=O)OC[C@H]4C3)n(C)c(=O)c2c1 (single isomer, unassigned) [Example 142]
–	–	–	–	> 15000 nM	> 15000 nM	1 to 500 nM	1 to 500 nM	C[C@@H](Nc1ccccc1C(=O)O)c1cc(F)cc2c(=O)n(C)c(C3C[C@@H]3C3CC3)cc12 (single isomer, unassigned) [Example 449]
–	–	–	–	500 to 2000 nM	2000 to 15000 nM	1 to 500 nM	1 to 500 nM	Cc1cc([C@@H](C)Nc2ccccc2C(=O)O)c2cc(N3CCN(c4cccnc4C#N)CC3)n(C)c(=O)c2c1 [Example 188]
> 15000 nM	> 15000 nM	> 15000 nM	> 15000 nM	–	–	–	–	Cc1cc([C@@H](C)Nc2cccc(F)c2C(=O)O)c2cc(N3CCn4c(cnc4C)C3)n(C)c(=O)c2c1 [Example 438]
–	–	–	–	> 15000 nM	> 15000 nM	500 to 2000 nM	2000 to 15000 nM	C[C@@H](Nc1ccccc1C(=O)O)c1cc(F)cc2c(=O)n(C)c(-c3cnc(-c4ccnc(C(F)(F)F)n4)c(F)c3)cc12 [Example 575]
–	> 15000 nM	–	2000 to 15000 nM	> 15000 nM	> 15000 nM	–	–	Cc1cc(C(C)Nc2ccccc2C(=O)O)c2cc(N3CC(Cl)C3)n(C)c(=O)c2c1 (single isomer, unassigned) [Example 78]
> 15000 nM	500 to 2000 nM	> 15000 nM	500 to 2000 nM	–	–	–	–	Cc1cc([C@@H](C)Nc2cccc(F)c2C(=O)O)c2cc(N3CCc4c(cnn4C)C3)n(C)c(=O)c2c1 [Example 439]
–	–	–	–	> 15000 nM	> 15000 nM	500 to 2000 nM	500 to 2000 nM	Cc1cc([C@@H](C)Nc2ccccc2C(=O)O)c2cc(N3CCN(c4ncnn4C)CC3)n(C)c(=O)c2c1 [Example 198]
> 15000 nM	1 to 500 nM	> 15000 nM	500 to 2000 nM	–	–	–	–	Cc1cc([C@@H](C)Nc2ccccc2C(=O)O)c2cc(N3CC4(CCCN(CC(F)(F)F)C4)C3)n(C)c(=O)c2c1 [Example 195]

EC50 ([1]; 72 hours)	IC50 [2]	IC50 ([3]; 6 hours)	EC50 ([4]; 72 hours)	IC50 ([3]; Homo sapiens, SK-BR-3, 6 h)	EC50 ([1]; Homo sapiens, SK-BR-3, 72 h)	IC50 ([2]; Homo sapiens, T47D, 6 h)	EC50 ([4]; Homo sapiens, T47D, 72 h)	SMILES
–	–	–	–	> 15000 nM	> 15000 nM	1 to 500 nM	1 to 500 nM	Cc1cc([C@@H](C)Nc2ccccc2C(=O)O)c2cc(-c3cnc(C(F)(F)F)cn3)n(C)c(=O)c2c1 [Example 382]
> 15000 nM	500 to 2000 nM	> 15000 nM	500 to 2000 nM	–	–	–	–	Cc1cc([C@@H](C)Nc2cccc(F)c2C(=O)O)c2cc(-c3cnc(C(F)(F)F)nc3)n(C)c(=O)c2c1 [Example 371]
> 15000 nM	1 to 500 nM	> 15000 nM	1 to 500 nM	–	–	–	–	COC[C@@H]1CC1c1cc2c([C@@H](C)Nc3ccccc3C(=O)O)cc(C)cc2c(=O)n1C (single isomer, unassigned) [Example 314]
> 15000 nM	1 to 500 nM	> 15000 nM	500 to 2000 nM	–	–	–	–	Cc1cc(C(C)Nc2ccccc2C(=O)O)c2cc(N3CCC(c4ccccc4)C3)n(C)c(=O)c2c1 (mixture of isomers) [Example 60]
–	–	–	–	> 15000 nM	> 15000 nM	1 to 500 nM	1 to 500 nM	COC(C)(C)c1ncc(-c2cc3c([C@@H](C)Nc4cccc(F)c4C(=O)O)cc(C)cc3c(=O)n2C)cc1F [Example 346]
> 15000 nM	2000 to 15000 nM	> 15000 nM	2000 to 15000 nM	–	–	–	–	Cc1cc(C(C)Nc2ccccc2C(=O)O)c2cc(N3CC(C)(O)C3)n(C)c(=O)c2c1 (single isomer, unassigned) [Example 182]
–	–	–	–	> 15000 nM	> 15000 nM	1 to 500 nM	500 to 2000 nM	Cc1cc([C@@H](C)Nc2ccccc2C(=O)O)c2cc(-c3cnc(C)c(C)c3)n(C)c(=O)c2c1 [Example 210]
–	–	–	–	> 15000 nM	> 15000 nM	1 to 500 nM	1 to 500 nM	C[C@@H](Nc1ccccc1C(=O)O)c1cc(F)cc2c(=O)n(C)c(-c3cnc(CF)s3)cc12 [Example 545]
–	–	–	–	> 15000 nM	> 15000 nM	500 to 2000 nM	2000 to 15000 nM	C[C@@H](Nc1ccccc1C(=O)O)c1cc(F)cc2c(=O)n(C)c(Br)cc12 [Example 555]
–	–	–	–	> 15000 nM	> 15000 nM	1 to 500 nM	1 to 500 nM	Cc1cc([C@@H](C)Nc2ccccc2C(=O)O)c2cc(C3C[C@H]3C(C)C)n(C)c(=O)c2c1 (stereo partly drawn) [Example 306]
–	–	–	–	> 15000 nM	> 15000 nM	1 to 500 nM	1 to 500 nM	C[C@@H](Nc1ccccc1C(=O)O)c1cc(F)cc2c(=O)n(C)c(C3C[C@@H]3CF)cc12 (single isomer, unassigned) [Example 493]
2000 to 15000 nM	1 to 500 nM	> 15000 nM	1 to 500 nM	–	–	–	–	Cc1cc([C@@H](C)Nc2ccccc2C(=O)O)c2cc(C3C[C@H]3C(C)C)n(C)c(=O)c2c1 (single isomer, unassigned) [Example 312]
–	–	–	–	> 15000 nM	> 15000 nM	1 to 500 nM	500 to 2000 nM	Cc1cc([C@@H](C)Nc2ccccc2C(=O)O)c2cc(-c3cnc(C)cc3C)n(C)c(=O)c2c1 [Example 223]
2000 to 15000 nM	500 to 2000 nM	2000 to 15000 nM	1 to 500 nM	–	–	–	–	Cc1cc([C@@H](C)Nc2cccc(F)c2C(=O)O)c2cc(N3CCN(c4cncnc4C)CC3)n(C)c(=O)c2c1 [Example 325]
> 15000 nM	1 to 500 nM	> 15000 nM	500 to 2000 nM	–	–	–	–	Cc1cc(C(C)Nc2ccccc2C(=O)O)c2cc(N3CCN4CC(F)(F)CC4C3)n(C)c(=O)c2c1 (single isomer, unassigned) [Example 121]
> 15000 nM	1 to 500 nM	> 15000 nM	1 to 500 nM	–	–	–	–	Cc1cc([C@@H](C)Nc2ccccc2C(=O)O)c2cc(C3C[C@H]3C)n(C)c(=O)c2c1 (single isomer, unassigned) [Example 313]
–	–	–	–	> 15000 nM	> 15000 nM	1 to 500 nM	1 to 500 nM	Cc1cc([C@@H](C)Nc2ccccc2C(=O)O)c2cc(-c3ccc(C(C)(F)F)nc3)n(C)c(=O)c2c1 [Example 230]

SMILES	EC50 ([1]; 72 hours)	IC50 [2]	IC50 ([3]; 6 hours)	EC50 ([4]; 72 hours)	IC50 ([3]; Homo sapiens, SK-BR-3, 6 h)	EC50 ([1]; Homo sapiens, SK-BR-3, 72 h)	IC50 ([2]; Homo sapiens, T47D, 6 h)	EC50 ([4]; Homo sapiens, T47D, 72 h)
CCON1CC2CCC(C1)N2c1cc2c([C@@H](C)Nc3ccccc3C(=O)O)cc(F)cc2c(=O)n1C [Example 44, 2-(((1R)-1-(3-(3-ethoxy-3,8-diazabicyclo[3.2.1]octan-8-yl)-7-fluoro-2-methyl-1-oxo-1,2-dihydroisoquinolin-5-yl)ethyl)amino)benzoic acid]	–	–	–	–	2000 to 15000 nM	2000 to 15000 nM	1 to 500 nM	1 to 500 nM
Cc1cc([C@@H](C)Nc2ccccc2C(=O)O)c2cc(N3CC4CC(C3)N4CC(F)(F)F)n(C)c(=O)c2c1 [Example 207]	–	–	–	–	> 15000 nM	> 15000 nM	1 to 500 nM	1 to 500 nM
